From article PMC3904413, “Allosteric modulation of GABAA receptors by extracellular ATP” (Molecular Brain, 2014)

Test system: T1, GABAARs (native, cultured hippocampal neurons)
T1 construct: gene Gabra1
Conditions: GABA 100 μM by pressure ejection, -60 mV; allosteric potentiator; error ± 0.3 in Figure 1 legend

EC50: 2100 ± 200 µM
Structure (SMILES): Nc1ncnc2c1ncn2[C@@H]1O[C@H](COP(=O)(O)OP(=O)(O)OP(=O)(O)O)[C@@H](O)[C@H]1O [ATP]
